Literature values, collected in US6998391B2, “Method for treating diseases associated with abnormal kinase activity” (SuperGen.Inc., priority 2002, dated 2006).
Where a name gives a salt, the structure may show the parent alone. Read-outs that look alike come from different tables or passages of the source. Where no end group is shown, it is not given here.

Columns and labels:
[1] = system: prostate cancer cells and osteoblasts; conditions: various in vitro and in vivo models
[2] = system: erbB receptor tyrosine kinase family; conditions: human cancer cell lines
[3] = system: platelet-derived growth factor receptor, fibroblast growth factor receptor, and insulin receptor; conditions: even at high concentrations
Syk [4] = system: Syk
ERK1 = conditions: low doses
tumor microvessels = conditions: mouse, in vivo
JAK3 = target: T1, JAK3 (Homo sapiens, UniProt P52333); conditions: dose-dependent fashion
T1 sequence (P52333 1-1124): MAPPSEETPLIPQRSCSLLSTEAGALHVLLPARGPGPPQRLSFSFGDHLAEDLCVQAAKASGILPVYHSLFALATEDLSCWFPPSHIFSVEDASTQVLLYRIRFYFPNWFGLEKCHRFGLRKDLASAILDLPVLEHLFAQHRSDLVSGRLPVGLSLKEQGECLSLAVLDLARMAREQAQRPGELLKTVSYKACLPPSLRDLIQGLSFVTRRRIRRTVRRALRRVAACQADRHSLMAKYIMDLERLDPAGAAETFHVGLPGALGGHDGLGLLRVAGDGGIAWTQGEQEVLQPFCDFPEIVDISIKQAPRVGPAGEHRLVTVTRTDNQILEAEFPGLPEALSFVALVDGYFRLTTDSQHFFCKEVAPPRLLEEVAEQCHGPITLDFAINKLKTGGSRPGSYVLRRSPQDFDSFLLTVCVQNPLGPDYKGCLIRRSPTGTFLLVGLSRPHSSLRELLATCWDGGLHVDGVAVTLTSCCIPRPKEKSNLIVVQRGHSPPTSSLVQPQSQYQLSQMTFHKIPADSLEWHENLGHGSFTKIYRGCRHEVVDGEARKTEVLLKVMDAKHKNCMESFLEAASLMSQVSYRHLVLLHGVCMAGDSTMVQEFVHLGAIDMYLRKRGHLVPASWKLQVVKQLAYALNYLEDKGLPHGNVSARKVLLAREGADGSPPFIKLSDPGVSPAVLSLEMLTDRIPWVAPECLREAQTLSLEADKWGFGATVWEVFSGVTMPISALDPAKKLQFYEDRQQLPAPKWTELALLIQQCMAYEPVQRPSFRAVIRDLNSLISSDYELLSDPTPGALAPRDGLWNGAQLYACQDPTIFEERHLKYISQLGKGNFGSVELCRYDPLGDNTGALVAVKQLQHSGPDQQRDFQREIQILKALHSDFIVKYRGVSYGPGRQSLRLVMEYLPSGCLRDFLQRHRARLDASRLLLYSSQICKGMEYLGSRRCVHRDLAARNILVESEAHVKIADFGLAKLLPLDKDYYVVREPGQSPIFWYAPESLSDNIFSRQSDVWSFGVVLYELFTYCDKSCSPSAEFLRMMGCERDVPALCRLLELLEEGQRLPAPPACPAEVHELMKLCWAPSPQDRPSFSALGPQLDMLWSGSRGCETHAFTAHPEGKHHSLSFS

Syk [5] = target: Syk (Homo sapiens, UniProt P43405)
Lck = Lck (Homo sapiens, UniProt P06239)
Chain of Lck (P06239 whole entry, species assumed): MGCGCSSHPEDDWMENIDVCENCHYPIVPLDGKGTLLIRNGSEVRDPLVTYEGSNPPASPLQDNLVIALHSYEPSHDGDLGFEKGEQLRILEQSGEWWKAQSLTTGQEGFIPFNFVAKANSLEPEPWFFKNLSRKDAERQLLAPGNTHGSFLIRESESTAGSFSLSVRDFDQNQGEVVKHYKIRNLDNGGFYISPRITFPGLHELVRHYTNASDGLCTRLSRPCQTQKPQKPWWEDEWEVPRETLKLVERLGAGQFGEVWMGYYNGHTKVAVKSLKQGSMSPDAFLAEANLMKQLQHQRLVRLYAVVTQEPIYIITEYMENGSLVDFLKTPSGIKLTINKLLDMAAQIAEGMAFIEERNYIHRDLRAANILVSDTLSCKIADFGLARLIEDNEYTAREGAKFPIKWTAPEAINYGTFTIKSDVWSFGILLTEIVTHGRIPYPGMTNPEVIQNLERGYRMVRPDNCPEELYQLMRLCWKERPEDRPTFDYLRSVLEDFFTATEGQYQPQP

ZAP-70 = target: T2, ZAP-70 (Homo sapiens, UniProt P43403)
T2 sequence (P43403 1-619): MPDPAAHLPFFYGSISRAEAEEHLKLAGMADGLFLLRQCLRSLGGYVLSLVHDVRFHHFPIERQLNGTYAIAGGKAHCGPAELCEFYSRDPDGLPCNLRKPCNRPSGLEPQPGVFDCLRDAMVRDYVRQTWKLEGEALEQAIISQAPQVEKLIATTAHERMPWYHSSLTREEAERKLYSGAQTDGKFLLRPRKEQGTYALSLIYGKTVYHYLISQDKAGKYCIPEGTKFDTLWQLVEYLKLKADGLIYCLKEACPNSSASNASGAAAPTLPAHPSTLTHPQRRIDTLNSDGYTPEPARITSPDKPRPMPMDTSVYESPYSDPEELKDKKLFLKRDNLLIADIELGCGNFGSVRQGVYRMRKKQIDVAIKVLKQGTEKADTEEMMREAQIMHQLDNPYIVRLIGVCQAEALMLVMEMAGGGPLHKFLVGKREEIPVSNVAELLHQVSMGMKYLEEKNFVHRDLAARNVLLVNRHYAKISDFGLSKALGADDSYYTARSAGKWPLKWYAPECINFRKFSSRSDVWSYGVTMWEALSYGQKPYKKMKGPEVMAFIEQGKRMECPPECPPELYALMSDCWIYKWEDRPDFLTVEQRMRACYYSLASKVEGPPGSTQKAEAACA

[6] = patients with chronic phase CML

Which “apoptosis of prostate cancer cells and osteoblasts” value [1] does the source give for `CO[C@]1(CO)C[C@H]2O[C@]1(C)n1c3ccccc3c3c4c(c5c6ccccc6n2c5c31)C(=O)NC4` [CEP-75 1] here?
Its value is “selectively induce apoptosis”.

For `C[C@]12O[C@H](C[C@]1(O)CO)n1c3ccccc3c3c4c(c5c6ccccc6n2c5c31)CNC4=O` [CEP-701], which “apoptosis of prostate cancer cells and osteoblasts” value [1] is on record?
Its value is “selectively induce apoptosis”.

With `C=CC(=O)Nc1cc2c(Nc3ccc(F)c(Cl)c3)ncnc2cc1OCCCN1CCOCC1` [CI-1033] as the molecule, how does the “inhibition of tyrosine kinase activity” value [2] read?
The value was “prompt, potent, and sustained inhibition”.

And the “inhibition of tyrosine kinase activity of other receptors” value [3]?
The value was “without inhibiting”.

With `Cc1ccc2c(=O)c3ccccc3n(CCCN)c2c1C.O=C(O)C(=O)O` [ER-27319, 3,4-dimethyl-10-(3-aminopropyl)-9-acridone oxalate] as the molecule, how does the “FceRI-mediated degranulation, tyrosine phosphorylation of Syk” value (Syk [4]; intact mast cells, not Lyn) read?
The value was “inhibits”.

For `Cc1ccc(NC(=O)c2ccc(CN3CCN(C)CC3)cc2)cc1Nc1nccc(-c2cccnc2)n1` [Imatinib mesylate], which complete cytogenetic response (CML patients; accelerated phase CML) is on record?
The complete cytogenetic response was 14%.

What about the “complete cytogenetic response maintained for four weeks” value (CML patients; accelerated phase CML) of the same molecule?
The value was 4%.

And the remissions (CML patients; accelerated phase CML patients)?
The remissions was 63%.

And the complete cytogenetic response (CML patients; blast phase CML)?
Its complete cytogenetic response is 5%.

And the “complete cytogenetic response maintained for four weeks” value (CML patients; blast phase CML)?
The value was 1%.

And the remissions (CML patients; blast phase patients)?
Its remissions is 26%.

What about the complete cytogenetic response (CML patients; chronic phase CML) of the same molecule?
The complete cytogenetic response was 30%.

And the “complete cytogenetic response maintained for four weeks” value (CML patients; chronic phase CML)?
The value was 16%.

And the complete hematologic response (CML patients; [6])?
The complete hematologic response was 88%.

What about the major cytogenetic response (CML patients; [6]) of the same molecule?
The major cytogenetic response was 49%.

Which “cyclin D1 expression and cell proliferation” value (ERK1/2 pathway) does the source give for `COc1cccc(-c2cc(=O)c3ccccc3o2)c1N` [PD98059] here?
Its value is “prevented cyclin D1 expression and inhibits cell proliferation”.

What about the ERK5/BMK1 pathway inhibition (ERK5) of the same molecule?
The ERK5/BMK1 pathway inhibition was “inhibited”.

What does the source list for `O=C(NOCC1CC1)c1ccc(F)c(F)c1Nc1ccc(I)cc1Cl` [PD184352]?
effect on ERK5 (ERK5; low doses): no effect; ERK1 activity (ERK1): abolished

With `Oc1cc(O)cc(/C=C/c2ccc(O)c(O)c2)c1` [Piceatannol, 3,4,3′,5′-tetrahydroxy-trans-stilbene] as the molecule, how does the “FceRI-mediated IP3 production, serotonin secretion, membrane ruffling and cell spreading” value (Syk [4]; by inhibiting Syk) read?
Its value is “inhibits”.

Which “time to apoptosis in tumor microvessels after initiation of treatment” value (tumor microvessels) does the source give for `Cc1[nH]c(/C=C2\C(=O)Nc3ccccc32)c(C)c1CCC(=O)O` [SU6668] here?
Its value is at most 6 h.

And the “time to dose-dependent decreases in tumor microvessel density after first treatment” value (tumor microvessels)?
The value was at most 3 days.

Which results are given for `N#CC(=C(/N)Sc1ccccc1N)/C(C#N)=C(\N)Sc1ccccc1N` [U0126]?
cyclin D1 expression and cell proliferation (ERK1/2 pathway): prevented cyclin D1 expression and inhibits cell proliferation; ERK5/BMK1 pathway inhibition (ERK5): inhibited

With `COc1cc2ncnc(Nc3cc(Br)c(O)c(Br)c3)c2cc1OC` [WHI-P97, 4-(3′,5′-dibromo-4′-hydroxylphenyl)-amino-6,7-dimethoxyquinazoline] as the molecule, how does the JAK3 inhibition (JAK3) read?
Its JAK3 inhibition is “inhibited JAK3”.

With `COc1cc2ncnc(Nc3ccc(O)c(Br)c3)c2cc1OC` [WHI-P 154, 4-(3′-bromo-4′-hydroxylphenyl)-amino-6,7-dimethoxyquinazoline] as the molecule, how does the JAK3 inhibition (JAK3) read?
The JAK3 inhibition was “inhibited JAK3”.

With KLILFLLL as the molecule, how does the “inhibition of Syk” value (Syk [5]) read?
Its value is “poor inhibitor”.

What about the “inhibition of Lck” value (Lck) of the same molecule?
Its value is “poor inhibitor”.

And the “inhibition of ZAP-70” value (ZAP-70)?
Its value is “competitive inhibitor”.
